The nature of data set [1]: Thermodynamic equilibrium aqueous solubility. The following applies: thermodynamic from solid, 18-24 hours at room temperature, read-out: Solubility (μg/mL) pH 1.0, 4.0, 6.5, 7.4 buffers. It is filed as physicochemical. Here is the method:
Thermodynamic Equilibrium Aqueous Solubility Evaluation
The calibration standard is prepared by accurately weighing 0.3-0.7 mg of sample into 5 ml volumetric flask and then dissolved in pure methanol. If the standard material is not fully soluble in methanol, other solvents such as DMSO or mixed solvent systems can used.
The calibration standard is typically prepared fresh, before the start of the assay. Note the calibration standard must be fully dissolved. A single point calibration curve is used to determine the concentration of the final saturated solution.
The saturated solution is prepared by adding 1.0 ml of the appropriate aqueous solvent to the remaining portion/portions of material (˜1 mg/l ml) into the 1 dram submission vial. The solution is sonicated and vortexed for ˜30 seconds. The sample solution is placed on an orbiter that continually agitates the sample solutions for 18-24 hours at room temperature. The saturated solution is then transferred to a 1.5 ml eppendorf tube and centrifuged for ˜2 min. at 10000 rpms. The supernatant from the saturated solution is filtered, using a 0.45 μm PTFE syringe filter, into a 1.5 mL glass HPLC.
The standards and sample are analyzed by HPLC using either UV/Vis diode array or variable wavelength detection. Typical quantitation wavelengths are 210 or 254 nm; detection wavelength can be individually customized to optimize sensitivity. In addition to UV detection, mass spectrometry detection is recommended in order to confirm the Mass of the peak of interest.
Dilutions of saturated aqueous test solutions are performed if HPLC-UV peak is beyond the linear portion of the standard calibration curve. Typical dilutions include 100 μl/900 μl (×10) or 500 μl/500 μl (2×), as required.
HPLC grade solvents are employed.

In a further data set the target is T1, human IDO1 (Homo sapiens, UniProt P14902).
T1 construct: expressed in transfected cells
T1 sequence (P14902 whole entry): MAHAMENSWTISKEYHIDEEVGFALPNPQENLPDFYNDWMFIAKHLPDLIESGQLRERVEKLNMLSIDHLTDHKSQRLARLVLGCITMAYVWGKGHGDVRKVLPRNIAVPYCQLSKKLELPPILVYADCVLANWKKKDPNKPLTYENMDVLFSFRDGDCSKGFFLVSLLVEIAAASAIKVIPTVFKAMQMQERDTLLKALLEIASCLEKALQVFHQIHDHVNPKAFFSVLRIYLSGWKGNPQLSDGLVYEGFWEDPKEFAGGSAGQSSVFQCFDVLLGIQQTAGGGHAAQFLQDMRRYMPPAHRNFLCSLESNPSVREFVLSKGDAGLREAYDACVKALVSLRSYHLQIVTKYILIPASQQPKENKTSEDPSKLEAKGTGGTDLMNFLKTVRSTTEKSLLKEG
Nature of the data set: Human IDO1/HEK293 cell IDO inhibition assay. It is filed as cell-based. Conditions: human IDO1/HEK293 cells, 20 hours; read-out: IDO1 HEK Human IC50. Here is the method:
HEK293 cells were transfected with a pCDNA-based mammalian expression vector harboring human IDO1 cDNA (NM 002164.2) by electroporation. They were cultured in medium (DMEM with 10% FBS) containing 1 mg/ml G418 for two weeks. Clones of HEK293 cells that stably expressed human IDO1 protein were selected and expanded for IDO inhibition assay.
The human IDO1/HEK293 cells were seeded at 10,000 cells per 50 μL per well with RPMI/phenol red free media contains 10% FBS in a 384-well black wall clear bottom tissue culture plate (Matrix Technologies LLC) 100 nL of certain concentration of compound was then added to each well using ECHO liquid handling systems. The cells were incubated for 20 hours in 37° C. incubator with 5% CO2.
The compound treatments were stopped by adding trichloroacetic acid (Sigma-Aldrich) to a final concentration at 0.2%. The cell plate was further incubated at 50° C. for 30 minute. The equal volume supernatant (20 μL) and 0.2% (w/v) Ehrlich reagent (4-dimethylaminobenzaldehyde, Sigma-Aldrich) in glacial acetic acid were mixed in a new clear bottom 384-well plate. This plate was then incubated at room temperature for 30 minute. The absorbance at 490 nm was measured on Envision plate reader. […]

Data set [2] addresses T2, indoleamine 2,3-dioxygenase (IDO) (Homo sapiens, UniProt P14902).
T2 construct: endogenous in cells; host or cells: HeLa (ATCC CCL-2), stimulated with IFN-gamma at 25 ng/mL
Nature of the data set: HeLa cell-based indoleamine 2,3-dioxygenase (IDO) assay, kynurenine production. The following applies: HeLa cells, IFNγ 25 ng/mL, 48 hour incubation. Here is the method:
Assessment of inhibitor activity in HeLa cell-based indoleamine 2,3-dioxygenase (IDO) assay:
HeLa (ATCC® CCL-2) cells were obtained from the ATCC® and cultured in Dulbecco's Modified Eagle Medium supplemented with 4.5 g/L glucose, […] (#10-013-CV, Corning), 2 mM L-alanyl-L-glutamine dipeptide (#35050-061, Gibco), 100U/mL penicillin, 100 μg/mL streptomycin (#SV30010, HyClone) and 10% fetal bovine serum (#SH30071.03 HyClone). Cells were maintained in a humidified incubator at 37° C. in 5% CO2.
IDO activity was assessed as a function of kynurenine production as follows: HeLa cells were seeded in a 96-well culture plate at a density of 5,000 cells/well and allowed to equilibrate overnight. After 24 hours, the media was aspirated and replaced with media containing IFNγ (#285-IF/CF, R&D Systems) at a final concentration of 25 ng/mL. A serial dilution of each test compound was added to the cells in a total volume of 200 μL of culture medium. […] Kynurenine concentrations were determined by measuring absorbance at 480 nm and calibrating against an L-kynurenine (#K8625, Sigma-Aldrich) standard curve using a SPECTRAMAX® M2e microplate reader (Molecular Devices). The percentage activity at each inhibitor concentration was determined and IC50 values assessed using nonlinear regression.

Setting [3] is: aqueous buffer pH 1.0, simulated gastric fluid, pH 1.0 buffer.
Setting [4] is: aqueous buffer pH 7.4, aqueous buffer, pH 7.4 buffer.
The mark [5] stands for this setting: aqueous buffer pH 4.0, aqueous buffer, pH 4.0 buffer.
Setting [6] is: aqueous buffer pH 6.5, aqueous buffer, pH 6.5 buffer.

SMILES strings stand for the structures. Values after ≈ are worked out from the molar mass of the structure shown. Like-named read-outs stand apart in the source and are kept apart here.

The values below come from patent publication US11447449B2, “Inhibitors of indoleamine 2,3-dioxygenase and methods of their use” (BRISTOL-MYERS SQUIBB COMPANY, priority 2018, dated 2022).

What is called IC50 is the point on the concentration scale where inhibition reaches its midpoint.

T2 sequence (P14902 whole entry): as above

As for `CC[C@@H](CC(=O)O)c1ccc(N(CC(C)C)CC(C)C)c(NC(=O)Nc2ccc(C)cc2)c1` [Example 1E, (S)-3-(4-(diisobutylamino)-3-(3-(p-tolyl)ureido)phenyl)pentanoic Acid], the solubility in data set [1] (setting [3]) was 630 µg/mL (≈ 1390 µM); in data set [1] (setting [4]) it was 1 µg/mL (≈ 2.2 µM). For the same compound, the IC50 was found to be 3.1 nM at human IDO1 and 4.1 nM in data set [2].

Take `CC[C@@H](CC(=O)OCOC(=O)CCCOP(=O)(O)O)c1ccc(N(CC(C)C)CC(C)C)c(NC(=O)Nc2ccc(C)cc2)c1` [Example 4, (S)-((4-(Phosphonooxy)butanoyl)oxy)methyl 3-(4-(diisobutylamino)-3-(3-(p-tolyl)ureido) Phenyl) Pentanoate]: the solubility in data set [1] (setting [3]) was 24 µg/mL (≈ 36.9 µM); in data set [1] (setting [5]), greater than 500 µg/mL; in data set [1] (setting [6]), greater than 500 µg/mL; in data set [1] (setting [4]) it was 158 µg/mL (≈ 243 µM).

For `CCOP(=O)(O)OCOC(=O)C[C@H](CC)c1ccc(N(CC(C)C)CC(C)C)c(NC(=O)Nc2ccc(C)cc2)c1` [Example 9, (3S)-((Ethoxy(hydroxy)phosphoryl)oxy)methyl 3-(4-(diisobutylamino)-3-(3-(p-tolyl)ureido)phenyl)pentanoate], the solubility in data set [1] (setting [3]) was 215 µg/mL (≈ 363 µM); in data set [1] (setting [5]), greater than 1100 µg/mL; in data set [1] (setting [6]), greater than 2000 µg/mL; in data set [1] (setting [4]), greater than 2000 µg/mL.

`CC[C@@H](CC(=O)OC(C)OC(=O)N(C)c1ncccc1COP(=O)(O)O)c1ccc(N(CC(C)C)CC(C)C)c(NC(=O)Nc2ccc(C)cc2)c1` (stereo partly drawn) [Example 20, (3S)-1-((Methyl(3-((phosphonooxy)methyl)pyridin-2-yl)carbamoyl)oxy)ethyl 3-(4-(diisobutylamino)-3-(3-(p-tolyl)ureido)phenyl)pentanoate]: the solubility in data set [1] (setting [3]) is 35 µg/mL (≈ 47.2 µM); in data set [1] (setting [5]), greater than 500 µg/mL; in data set [1] (setting [6]), greater than 500 µg/mL; in data set [1] (setting [4]), greater than 500 µg/mL.

For the compound `CC[C@@H](CC(=O)OCOC(=O)OCC(C)OP(=O)(O)O)c1ccc(N(CC(C)C)CC(C)C)c(NC(=O)Nc2ccc(C)cc2)c1` (stereo partly drawn) [Example 22, (3S)-(((2-(Phosphonooxy)propoxy)carbonyl)oxy)methyl 3-(4-(diisobutylamino)-3-(3-(p-tolyl)ureido)phenyl)pentanoate], the solubility in data set [1] (setting [3]) is 15 µg/mL (≈ 22.5 µM); in data set [1] (setting [5]), greater than 500 µg/mL; in data set [1] (setting [6]), 22 µg/mL (≈ 33 µM); in data set [1] (setting [4]), 16 µg/mL (≈ 24 µM).
